How the values were obtained:
Tetranychus urticae = Tetranychus urticae test on bush beans; drench application; type: in vivo; conditions: bush bean plants, 0.25 mg of ai/plant, 14 days after infestation
Method: (§1) To produce a suitable preparation of active compound, 1 part by weight of active compound is mixed with the stated amounts of solvent and emulsifier, and the concentrate is diluted with water to the desired concentration.
Bush bean plants (Phaseolus vulgaris) are watered with the respective product solution. The stated concentration refers to the amount of active compound per plant. After about 1 week, the treated plants are infested with the greenhouse red spider mite (Tetranychus urticae).
After 2 weeks, the effect in % is determined. 100% means that all of the spider mites have been killed; 0% means that none of the spider mites have been killed.

Liriomyza trifolii = Liriomyza trifolii test on bush beans; drench application; type: in vivo; conditions: bush bean plants, 0.5 mg of ai/plant, 14 days after infestation
Method: as §1
Bush bean plants (Phaseolus vulgaris) are watered with the respective product solution. The stated concentration refers to the amount of active compound per plant. After about 1 week, the treated plants are infested with the leaf-mining fly (Liriomyza trifolii).
After 2 weeks, the effect in % is determined. 100% means that all of the leaf-mining flies have been killed; 0% means that none of the leaf-mining flies have been killed.

For Cc1cc(F)c(-n2nc(C(F)(F)F)nc2N)cc1[S+]([O-])CC(F)(F)F (centres unmarked) [(I-4)], which “% Activity (according to Abbott)” value (Tetranychus urticae) is on record?
Its value is 100%.

What about the “% Activity (according to Abbott)” value (Liriomyza trifolii) of the same compound?
Its value is 100%.

— patent US20110053996A1, “Use of phenyltriazoles for controlling insects and spider mites by watering, droplet application or dip application or by treating seed” (Bayer CropScience AG, priority 2009, published 2011)
